test system: human bronchial epithelial cells, CFTR corrector, plate reader; experiment: CFTR ΔF508 corrector activity in bronchial cells, dose response, human bronchial epithelial cells, plate reader, cherry-pick, two tests (AID 743267); details: measured here: test 1 replicate run

Compound | AC50
CN1c2ccc(-c3ccc(F)cc3)cc2[C@H]2[C@H](CCN2S(=O)(=O)c2ccc(F)cc2)[C@H]1CO | 6.55 µM
COc1ccc(S(=O)(=O)Nc2ccc3c(c2)C(=O)N([C@@H](C)CO)C[C@@H](C)[C@H](CN(C)Cc2ccc(Oc4ccccc4)cc2)O3)cc1 | 0.13 µM
Cc1ccc(-c2ccc3c(c2)O[C@@H](CN(C)Cc2ccccn2)[C@H](C)CN([C@H](C)CO)S3(=O)=O)cc1 | 13.6 µM
CCS(=O)(=O)N1CC(=O)N2[C@H](CO)[C@@H](c3ccc(C#CCC(C)C)cc3)[C@@H]2C1 | 0.0676 µM
CN1c2ccc(-c3ccc(C#N)cc3)cc2[C@H]2[C@H](CCN2S(=O)(=O)c2cccc(F)c2)[C@@H]1CO | 16 µM
COc1ccc(S(=O)(=O)N2CC[C@@H]3[C@H](CO)N(C)c4ccc(-c5ccc(F)cc5)cc4[C@@H]32)cc1 | 16 µM
COc1ccc(S(=O)(=O)N2CC[C@@H]3[C@@H](CO)N(C)c4ccc(-c5ccc(F)cc5)cc4[C@@H]32)cc1 | 13 µM
COc1ccc(S(=O)(=O)N2CC[C@@H]3[C@@H](CO)Nc4ccc(-c5cccc(C#N)c5)cc4[C@@H]32)cc1 | 16 µM
CO[C@@H](CN(C)S(=O)(=O)c1ccc(C)cc1)[C@H](C)CN([C@@H](C)CO)S(=O)(=O)c1cccc(Cl)c1 | 5.49 µM

same assay, conditions: measured here: test 2 replicate run

Compound | AC50
COc1ccc(O)c(/C=N/NC(=O)c2ccc(N3CCCC3=O)cc2)c1 | 8.14 µM
NC1(C(=O)O)CC1 | > 50 µM
COc1ccc(NC(=O)C2(C)Cc3c(-c4cccc(NC(C)=O)c4)ccnc3O2)cc1 (configuration not stated) | 4.58 µM
Cc1ccnc(N2C(=O)c3cccc4c([N+](=O)[O-])ccc(c34)C2=O)c1 | 6.5 µM
C/C(=N\NC(=O)c1c(Cl)c(C)nn1C)c1ccc(NC(=O)C2CCC2)cc1 | 1.1 µM
Cc1ccc(CNC(=O)c2ccc3c(=O)c(O)c(-c4ccc(C)cc4)[nH]c3c2)cc1 | 4.24 µM
COc1ccc(/C=C2\SC(=O)N(CCNC(=O)C3=COCCO3)C2=O)cc1 | 1.84 µM
Clc1ccc2c(c1)-c1ccccc1C1=NCCN12 | 2.72 µM
COc1cccc(/C=N/NC(=O)C(=O)N/N=C/c2cccc(OC)c2O)c1O | 40.1 µM
COc1ccc(C2=Nn3c(nnc3-c3ccccc3F)SC2)cc1OC1CCOC1 (configuration not stated) | 22.3 µM
O=C(Nc1ccc(Br)cn1)c1cccc2ccccc12 | 1.97 µM
Nc1nn(-c2ccccc2)c(N)c1N=Nc1cccc(F)c1 | 2.04 µM
COc1ccc(C2CN=NC23CCc2ccccc2C3=O)cc1 (configuration not stated) | 38.9 µM
COc1cccc(-c2cnc3c(NC(C)=O)cc(-c4cc(F)ccc4OC)cn23)c1 | 11.9 µM
COc1cc(OC)cc(-c2cc3ccc(OC)cc3cn2)c1 | 43.6 µM
COC(=O)C1=CN(c2ccc(OC)cc2OC)C(N)=C(C#N)C1c1ccccc1F (configuration not stated) | 1.23 µM
NS(=O)(=O)c1cc(C2(O)NC(=O)c3ccccc32)ccc1Cl (configuration not stated) | > 50 µM
O=C(NCCC1CCCCN1S(=O)(=O)c1cccs1)C(=O)Nc1ccc(F)cc1F (configuration not stated) | 8.39 µM
CCN(Cc1ccccc1)c1ccc(/C=N/N=C(N)N)cc1 | 4.74 µM
COc1cc(NC(=O)COC(=O)c2n[nH]c3ccccc23)c(C)cc1[N+](=O)[O-] | 36.6 µM
Cc1ccc2c(C)c3ccc4ccccc4c3c[n+]2c1 | 1.06 µM
COc1cc(OC)cc(C(=O)N2CC(=O)Nc3ccccc32)c1 | 2.1 µM
COc1cc(/C=C(\C#N)c2nc3ccccc3[nH]2)cc(OC)c1O | 7.88 µM

Compound | AC50
Cc1ccc(-c2cccc(CN3CCN(C(C)C)C(CCO)C3)c2)o1 (configuration not stated) | > 50 µM
O=C(NCc1ccccc1)C1Cc2c(-c3cccc(F)c3)ccnc2O1 (configuration not stated) | 0.893 µM
c1ccc(CCNc2nc(-c3ccccn3)nc3ccccc23)cc1 | 2.77 µM
O=C(N/N=C/c1c(O)ccc2ccccc12)c1ccc(Br)o1 | 6.34 µM
N#CC(C#N)=C1C=C2C=C(N3CCCCCC3)CCC2CC1 (configuration not stated) | 0.239 µM
CN(C)/C=C1\C=C2C(=O)c3ccccc3N2C1=O | 5.5 µM
COc1ccc2cc(CN(CC3CCCO3)C(=S)Nc3ccccc3)c(=O)[nH]c2c1 (configuration not stated) | > 50 µM
CCOC(=O)c1cc2c(=Cc3ccc(N(C)C)cc3)c3ccccc3n2[n+]1C | 5.09 µM
CCOC1=C2CN(S(=O)(=O)c3ccc(C)cc3)CC[C@@H]2N(S(=O)(=O)c2ccc(C)cc2)[C@H](c2ccccc2)C1 | 4.47 µM
COc1ccc(C2c3ccc4ccccc4c3Oc3ncn(CCCO)c(=N)c32)cc1OC (configuration not stated) | 25.5 µM
CNc1ccc2c3c(cccc13)C(=O)N(C)C2=O | 7.59 µM
Cc1c(OCC(=O)NCCN2CCOCC2)ccc2c3c(c(=O)oc12)CCC3 | > 50 µM
O=C1c2cccc3c(O)ccc(c23)C(=O)N1c1ccc(Cl)cc1 | 16.8 µM
COc1ccccc1Nc1nc(-c2sc(NC(=O)C(C)(C)C)nc2C)cs1 | 3.84 µM
COc1ccc(C2=NOC(C(=O)NCc3ccccc3)C2)cc1 (configuration not stated) | 2.42 µM
O=c1c2ccccc2sc2c(CO)ccc(NCCN3CCCCC3)c12 | 5.18 µM
COc1cc2c(C#CCCO)c(-c3ccsc3)oc(=O)c2cc1OC | 5.52 µM
COc1cc(-c2noc(C)c2C#Cc2ccsc2)cc(OC)c1OC | 0.537 µM
COc1ccc(COc2cc(-c3cccc(OC)c3)nc3ccc(NC(=O)c4ccc(OC)cc4)cc23)cc1 | 1.89 µM
CCC1=Nc2cc(C(=O)NCc3cccnc3)ccc2Sc2ccc(C)cc21 | 6.64 µM
COc1ccc2c(c1)sc(N)[n+]2Cc1cc(C)cc2cccnc12 | 1.04 µM
N#Cc1ccc(-c2cccs2)nc1SCc1cccnc1 | 0.519 µM
Cc1cccc(N2CCN(S(=O)(=O)c3cc(-c4cc(C)no4)ccc3C)CC2C)c1 (configuration not stated) | 2.57 µM

Compound | AC50
COc1cc(OC)cc(C(=O)N[C@H](C(=O)Nc2nc3ccccc3[nH]2)C(C)C)c1 | 2.34 µM
CN(C)CCNC(=O)c1ccc(Cl)c2cc3ccccc3nc12 | 5.35 µM
NS(=O)(=O)c1ccc(NNC(=O)c2ccc(Br)o2)c([N+](=O)[O-])c1 | 8.91 µM
CC(=O)Oc1c(C)cc(Cl)cc1C(=O)Nc1ccc([N+](=O)[O-])cc1Cl | 1.38 µM
COC(=O)COc1cccc2c(=O)n(CC(=O)NCc3ccccc3)ccc12 | 5.25 µM
O=C(Nc1ccc(Cl)cn1)c1cccc2ccccc12 | 8.46 µM
COc1cccc(/C=N/NC(=O)C(=O)Nc2ccccc2OC(F)(F)C(F)F)c1O | 9.39 µM
CO/N=C\CC(=O)Nc1ccc(Cl)cc1Cl | 30.9 µM
Brc1ccc2c(c1)C(C1=NCCN1)c1ccccc1CS2 (configuration not stated) | 16 µM
COc1ccc(C(=O)OCC(=O)N2C(C)CCCC2C)cc1S(=O)(=O)N1CCOCC1 (configuration not stated) | 29.6 µM
CC1(C)Cc2c(c(-c3ccco3)nc3sc4c(NCCN5CCOCC5)ncnc4c23)CO1 | 3.92 µM
Cn1cc(C(=O)N/N=C/c2ccc3c(c2)OCO3)c2ccccc21 | 9.88 µM
COc1ccccc1NC(=O)CSc1ccc(-c2ccccn2)nn1 | 20 µM
CCOP(=O)(C#Cc1ccccc1)C(O)c1ccc(Br)cc1 (configuration not stated) | > 50 µM
Cc1cccc(N(C)S(=O)(=O)c2ccc(-c3cc(C)no3)s2)c1 | 0.738 µM
COc1cccc(C(=O)Nc2sc3c(c2C#N)CCN(C(C)=O)C3)c1 | 1.36 µM
CC[N+]1(CC)CC2=Cc3ccccc3CC2C1 (configuration not stated) | 27.8 µM
COc1ccc(S(=O)(=O)NCc2ccccn2)cc1NC(=O)c1ccccc1F | 1.32 µM
COc1ccccc1C(=O)NC(=S)/C=C1/N(C)c2ccccc2C1(C)C | > 50 µM
COC(=O)/C=C/c1ccccc1S(=O)(=O)N(Cc1ccccc1)Cc1ccco1 | 3.04 µM
Cc1cc2c(cc1S(=O)(=O)Nc1ccc(F)cc1)n(C)c(=O)c(=O)n2C | 43.2 µM
COc1ccc2c(c1)C(O)C(CO)C(C(=O)O)C2 (configuration not stated) | 9.28 µM

From PubChem BioAssay AID743267 (Broad Institute, 2014)
